# Reference: patent US20080009511A1, “Cancer treatment with compounds inhibiting PKC alpha” (priority 2004, published 2008)
# What was measured:
# [1] = test system: 3Y1 rat fibroblast cells overexpressing the epidermal growth factor receptor (EGFR); assay: Soft agar/cell transformation assay; format: cell-based; conditions: 1 micromole with EGF (100 ng/ml), in contrast to EGF alone
# Text: 1×10^3 3Y1 rat fibroblast cells overexpressing the epidermal growth factor receptor (EGFR) were suspended in top agar (consisting of 20 percent calf serum, 0.38 percent agar and the remainder DMEM) and overlaid onto bottom agar (DMEM, 20 percent calf serum and 0.7 percent agar) as reported by Sementchenko et al., in Onocgen 17:2883-2888.
# U-937 lymphoma cells = assay: Cell viability assay (trypan blue dye exclusion), viable cells counted at day 6; format: cell-based, human; conditions: 5 micromoles
# Protocol: Cells were seeded for 24 hours. Then they were treated with PKC inhibitors or left untreated. The cells were then collected periodically and evaluated using trypan blue dye exclusion to assess viability using the method described by C Y Chen, et al., in J. Biol. Chem. 273:16700-16709. Cultures containing about 4×10^4 cells were treated with 5 micromoles of Gö7874 (except that PC3 prostate cancer cells were treated with 10 micromoles) and the viable cells were counted at day 6.
# KB oral cancer cells = assay: as above; format: cell-based, human; conditions: 5 micromoles
# Protocol: (§1) The following cancer cells were maintained in Dulbecco's modified Eagle medium (DMEM) supplemented with 10 percent bovine calf serum. Cells were seeded for 24 hours. Then they were treated with PKC inhibitors or left untreated. The cells were then collected periodically and evaluated using trypan blue dye exclusion to assess viability using the method described by C Y Chen, et al., in J. Biol. Chem. 273:16700-16709. Cultures containing about 4×10^4 cells were treated with 5 micromoles of Gö7874 (except that PC3 prostate cancer cells were treated with 10 micromoles) and the viable cells were counted at day 6. […] Cultures containing about 4×10^4 cells were treated with or without 10 micromoles of Gö6850 and the viable cells were counted at day 6. […] Cultures containing about 4×10^4 cells were treated with or without 10 micromoles of NGIC-I and the viable cells were counted at day 6. […] Cultures containing about 4×10^4 cells were treated with or without 10 micromoles of Ro31-7549 and the viable cells were counted at day 6. […] Cultures containing about 4×10^4 cells were treated with or without 10 micromoles of Ro31-8220 and the viable cells were counted at day 6. […] Cultures containing about 4×10^4 cells were treated with or without 10 micromoles of Ro31-8425 and the viable cells were counted at day 6. […] Cultures containing about 4×10^4 cells were treated with or without 10 micromoles of Ro31-0432 and the viable cells were counted at day 6.
# [2] = test system: Jurkat cells (a human acute T-cell leukemia cell line); assay: as above; format: cell-based; conditions: 5 micromoles
# Protocol: as §1
# [3] = test system: PANC-1 human pancreatic carcinoma cells; assay: as above; format: cell-based; conditions: 5 micromoles
# Protocol: as §1
# [4] = test system: NBT-II human bladder cancer cells; assay: as above; format: cell-based; conditions: 5 micromoles, about 4×10^4 cells seeded, untreated 2.9 ± 0.4
# Protocol: as §1
# [5] = test system: MDA-MB-468 human breast cancer cells; assay: as above; format: cell-based; conditions: 5 micromoles
# Protocol: as §1
# [6] = test system: HepG2 human liver cancer cells; assay: as above; format: cell-based; conditions: 5 micromoles
# Protocol: as §1
# [7] = test system: H460 human lung cancer cells; assay: as above; format: cell-based; conditions: 5 micromoles
# Protocol: as §1
# [8] = test system: Hela human cervical cancer cells; assay: as above; format: cell-based; conditions: 5 micromoles
# Protocol: as §1
# [9] = test system: HT29 human colon cancer cells; assay: as above; format: cell-based; conditions: 5 micromoles
# Protocol: as §1
# [10] = test system: PC3 human prostate cancer cells; assay: as above; format: cell-based; conditions: 10 micromoles
# Protocol: as §1
# U251 human glioma cells = assay: as above; format: cell-based; conditions: 5 micromoles
# Protocol: as §1
# [11] = test system: AGS human gastric cancer cells; assay: as above; format: cell-based; conditions: 5 micromoles
# Protocol: as §1
# [12] = test system: A431 human epidermoid carcinoma cells; assay: as above; format: cell-based; conditions: 5 micromoles
# Protocol: as §1
# [13] = test system: 3Y1 rat fibroblast cells overexpressing EGF receptors (3Y1-EGFR cells); assay: EGF-induced cell transformation (transformed morphology); format: cell-based; conditions: 1 micromole
# [14] = about 4×10^4 cells seeded, untreated 3.8 ± 0.4
smiles,measurement,setting,value
"COc1ccc2c(c1)c1c3c(c4c5ccccc5n(C)c4c1n2CC(O)CN(C)C)C(=O)NC3=O.Cl (stereo not drawn) [Gö7874, 5,7(6H)-dione,13-[3-(dimethylamino)-2-hydroxypropyl]-12,13-dihydro-3-methoxy-12-methyl-5H-Indolo[2,3-a]pyrrolo[3,4-c]carbazole, monohydrochloride]",reduction of colony number in soft agar,[1],82%
same,cells that went to apoptosis after treatment,U-937 lymphoma cells,all
same,cells that went to apoptosis after treatment,KB oral cancer cells,all
same,Treated (cell number × 10^5),KB oral cancer cells; [14],0 × 10^5
same,"originally seeded cells survived (fraction, words)",[2],less than one third
same,Treated (cell number × 10^5),"[2]; about 4×10^4 cells seeded, untreated 8.8 ± 0.4",0.1 × 10^5
same,cells that went to apoptosis after treatment,[3],all
same,Treated (cell number × 10^5),"[3]; about 4×10^4 cells seeded, untreated 2.1 ± 0.3",0 × 10^5
same,Treated (cell number × 10^5),[4],0 × 10^5
same,cells that went to apoptosis after treatment,[5],all
same,Treated (cell number × 10^5),"[5]; about 4×10^4 cells seeded, untreated 6.1 ± 0.4",0 × 10^5
same,cells that went to apoptosis after treatment,[6],all
same,Treated (cell number × 10^5),"[6]; about 4×10^4 cells seeded, untreated 4.2 ± 0.4",0 × 10^5
same,cells that went to apoptosis after treatment,[7],all
same,Treated (cell number × 10^5),"[7]; about 4×10^4 cells seeded, untreated 2.4 ± 0.2",0 × 10^5
same,cells that went to apoptosis after treatment,[8],all
same,Treated (cell number × 10^5),"[8]; about 4×10^4 cells seeded, untreated 3.4 ± 0.4",0 × 10^5
same,cells that went to apoptosis after treatment,[9],all
same,Treated (cell number × 10^5),[9]; [14],0 × 10^5
same,cells that went to apoptosis after treatment,[10],all
same,Treated (cell number × 10^5),"[10]; about 4×10^4 cells seeded, untreated 7.1 ± 0.3",0 × 10^5
same,cells that went to apoptosis after treatment,U251 human glioma cells,all
same,Treated (cell number × 10^5),"U251 human glioma cells; about 4×10^4 cells seeded, untreated 9.6 ± 0.5",0 × 10^5
same,cells that went to apoptosis after treatment,[11],all
same,inhibition of cell proliferation,[11],More than 60%
same,Treated (cell number × 10^5),"[11]; about 4×10^4 cells seeded, untreated 2.4 ± 0.3",0.8 × 10^5
same,cells that went to apoptosis after treatment,[12],all
same,Treated (cell number × 10^5),"[12]; about 4×10^4 cells seeded, untreated 5.4 ± 0.4",0 × 10^5
same,cell apoptosis during co-treatment,[13]; co-treatment with 100 ng/ml EGF,without detected cell apoptosis
same,effect on EGF-induced transformed morphology,[13]; co-treatment with 100 ng/ml EGF for 48 hours,partially blocked
